Where “and” joins values, the source holds several entries; their conditions need not be identical. Equal values may be shown once.
Tests used:
[1] = target: CDK2 (human) (UniProt P24941); experiment: Enzyme Assay
[2] = target: EGFR (human) (UniProt P00533)
[3] = target: PIK3CB (Human) (UniProt P42338); experiment: Enzyme Assay
[4] = target: PIK3CD (Human) (UniProt O00329); experiment: Enzyme Assay
[5] = target: PIK3CG (human) (UniProt P48736); experiment: Enzyme Assay
[6] = target: EGFR (human) (UniProt P00533); settings: a431
[7] = target: EGFR (UniProt P00533)
[8] = target: EGFR (human) (UniProt P00533); remark: listed apart in the source
[9] = target: PIK3CA (human) (UniProt P42336); experiment: Enzyme Assay
[10] = target: PIK3CA (human) (UniProt P42336); experiment: Inhibition of PIK3CA Kinase Activity
[11] = target: PIK3CB (Human) (UniProt P42338); experiment: Inhibition of PIK3CB Kinase Activity
[12] = target: PIK3CB (Human) (UniProt P42338); experiment: Cell-Based Assay
[13] = target: CDK2 (UniProt P24941); experiment: Enzyme Assay
[14] = target: MAPK14 (UniProt Q16539); experiment: Inhibition of MAPK Kinase Activity
[15] = target: PIK3CG (human) (UniProt P48736); experiment: Inhibition of PIK3CG Kinase Activity
[16] = target: PIK3CD (Human) (UniProt O00329); experiment: Inhibition of PIK3CD Kinase Activity
[17] = target: EGFR (human) (UniProt P00533); remark: listed apart in the source
[18] = target: MAPK14 (UniProt Q16539); experiment: Enzyme Assay

Chain of PIK3CG (human) (P48736 whole entry, looked up): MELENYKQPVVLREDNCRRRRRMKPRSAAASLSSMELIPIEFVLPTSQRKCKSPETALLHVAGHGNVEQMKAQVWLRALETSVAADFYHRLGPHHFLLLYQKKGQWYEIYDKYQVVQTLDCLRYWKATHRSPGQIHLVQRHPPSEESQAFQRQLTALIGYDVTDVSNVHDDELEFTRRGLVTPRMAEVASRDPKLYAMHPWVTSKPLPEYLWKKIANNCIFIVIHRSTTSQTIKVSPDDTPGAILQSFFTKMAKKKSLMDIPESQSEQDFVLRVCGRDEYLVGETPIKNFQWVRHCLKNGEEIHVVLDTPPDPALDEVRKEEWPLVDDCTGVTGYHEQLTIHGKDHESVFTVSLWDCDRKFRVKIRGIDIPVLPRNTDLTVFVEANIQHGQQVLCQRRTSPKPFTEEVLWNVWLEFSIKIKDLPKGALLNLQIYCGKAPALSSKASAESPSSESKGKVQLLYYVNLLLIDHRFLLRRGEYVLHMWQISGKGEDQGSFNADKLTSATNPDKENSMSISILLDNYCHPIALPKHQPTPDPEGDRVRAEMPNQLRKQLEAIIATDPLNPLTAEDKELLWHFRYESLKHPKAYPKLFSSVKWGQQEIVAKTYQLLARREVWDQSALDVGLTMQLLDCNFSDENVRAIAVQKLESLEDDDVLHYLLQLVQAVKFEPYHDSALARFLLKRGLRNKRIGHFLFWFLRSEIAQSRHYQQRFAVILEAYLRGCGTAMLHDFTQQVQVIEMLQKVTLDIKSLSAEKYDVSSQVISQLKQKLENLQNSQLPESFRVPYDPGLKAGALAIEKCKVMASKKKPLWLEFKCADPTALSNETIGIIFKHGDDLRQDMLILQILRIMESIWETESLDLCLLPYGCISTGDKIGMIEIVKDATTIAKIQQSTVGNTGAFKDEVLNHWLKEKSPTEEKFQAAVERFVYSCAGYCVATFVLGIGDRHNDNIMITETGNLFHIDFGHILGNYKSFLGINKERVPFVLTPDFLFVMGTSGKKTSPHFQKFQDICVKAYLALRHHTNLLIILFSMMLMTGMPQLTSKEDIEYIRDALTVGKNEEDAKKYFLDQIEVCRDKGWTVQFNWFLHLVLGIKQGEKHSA
Chain of EGFR (P00533 whole entry, looked up): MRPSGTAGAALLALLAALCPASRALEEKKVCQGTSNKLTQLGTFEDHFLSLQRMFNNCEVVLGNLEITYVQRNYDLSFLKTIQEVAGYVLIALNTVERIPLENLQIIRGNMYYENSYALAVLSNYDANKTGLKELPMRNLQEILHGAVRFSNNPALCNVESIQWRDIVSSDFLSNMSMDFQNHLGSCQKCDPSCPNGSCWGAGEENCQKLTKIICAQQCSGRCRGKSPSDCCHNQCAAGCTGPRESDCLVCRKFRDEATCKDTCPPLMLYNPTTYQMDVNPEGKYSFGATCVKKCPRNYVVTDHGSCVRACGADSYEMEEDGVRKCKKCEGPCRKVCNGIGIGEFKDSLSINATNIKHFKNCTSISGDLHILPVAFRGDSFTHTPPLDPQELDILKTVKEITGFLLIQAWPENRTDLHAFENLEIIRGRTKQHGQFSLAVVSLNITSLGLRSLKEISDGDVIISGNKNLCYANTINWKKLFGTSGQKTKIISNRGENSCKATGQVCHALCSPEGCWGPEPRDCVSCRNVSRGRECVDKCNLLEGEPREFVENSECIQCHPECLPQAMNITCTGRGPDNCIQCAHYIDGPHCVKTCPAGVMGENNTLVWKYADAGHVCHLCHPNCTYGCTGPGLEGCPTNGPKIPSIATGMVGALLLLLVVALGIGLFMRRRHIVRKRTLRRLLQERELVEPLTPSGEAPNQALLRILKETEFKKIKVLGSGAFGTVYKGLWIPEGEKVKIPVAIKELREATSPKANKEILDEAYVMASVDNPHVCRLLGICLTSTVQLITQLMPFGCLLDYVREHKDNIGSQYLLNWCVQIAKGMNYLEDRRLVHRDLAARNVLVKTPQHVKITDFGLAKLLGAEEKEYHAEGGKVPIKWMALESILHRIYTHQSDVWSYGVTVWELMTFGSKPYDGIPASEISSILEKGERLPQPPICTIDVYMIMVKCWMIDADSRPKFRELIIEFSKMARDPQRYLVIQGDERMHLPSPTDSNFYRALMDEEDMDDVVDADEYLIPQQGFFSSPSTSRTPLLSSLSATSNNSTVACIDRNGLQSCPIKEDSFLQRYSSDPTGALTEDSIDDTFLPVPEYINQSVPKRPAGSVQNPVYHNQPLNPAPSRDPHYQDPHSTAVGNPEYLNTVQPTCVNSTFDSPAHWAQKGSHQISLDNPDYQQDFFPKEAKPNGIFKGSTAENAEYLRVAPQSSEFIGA
Chain of EGFR (human) (P00533 whole entry, looked up): as above
Chain of PIK3CA (human) (P42336 whole entry, looked up): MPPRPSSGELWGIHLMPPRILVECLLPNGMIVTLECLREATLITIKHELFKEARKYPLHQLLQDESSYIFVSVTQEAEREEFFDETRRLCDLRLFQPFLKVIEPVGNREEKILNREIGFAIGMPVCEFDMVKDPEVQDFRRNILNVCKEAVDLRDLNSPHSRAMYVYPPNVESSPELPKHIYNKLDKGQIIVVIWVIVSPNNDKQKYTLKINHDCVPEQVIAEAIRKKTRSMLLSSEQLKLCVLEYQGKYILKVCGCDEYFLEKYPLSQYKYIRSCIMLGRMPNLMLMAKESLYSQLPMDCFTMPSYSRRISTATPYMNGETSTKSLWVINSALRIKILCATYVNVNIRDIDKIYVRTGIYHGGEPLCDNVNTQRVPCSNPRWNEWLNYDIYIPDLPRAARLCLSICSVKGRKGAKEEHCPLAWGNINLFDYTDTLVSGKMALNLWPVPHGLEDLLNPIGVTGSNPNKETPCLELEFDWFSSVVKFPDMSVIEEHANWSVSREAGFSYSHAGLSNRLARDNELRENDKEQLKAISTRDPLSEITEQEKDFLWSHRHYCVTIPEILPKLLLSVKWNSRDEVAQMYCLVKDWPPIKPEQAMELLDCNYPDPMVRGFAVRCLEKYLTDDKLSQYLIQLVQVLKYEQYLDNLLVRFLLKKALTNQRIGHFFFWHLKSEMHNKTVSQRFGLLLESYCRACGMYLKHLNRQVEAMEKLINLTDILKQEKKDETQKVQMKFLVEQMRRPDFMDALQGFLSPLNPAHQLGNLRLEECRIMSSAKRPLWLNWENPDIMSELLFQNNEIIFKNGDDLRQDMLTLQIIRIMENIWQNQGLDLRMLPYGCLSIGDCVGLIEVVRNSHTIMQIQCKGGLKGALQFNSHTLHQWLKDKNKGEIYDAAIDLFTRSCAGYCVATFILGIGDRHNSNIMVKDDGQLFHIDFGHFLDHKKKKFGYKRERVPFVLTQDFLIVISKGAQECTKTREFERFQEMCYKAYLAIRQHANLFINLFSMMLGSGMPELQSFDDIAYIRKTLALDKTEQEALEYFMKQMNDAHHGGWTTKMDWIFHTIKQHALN
Chain of MAPK14 (Q16539 whole entry, looked up): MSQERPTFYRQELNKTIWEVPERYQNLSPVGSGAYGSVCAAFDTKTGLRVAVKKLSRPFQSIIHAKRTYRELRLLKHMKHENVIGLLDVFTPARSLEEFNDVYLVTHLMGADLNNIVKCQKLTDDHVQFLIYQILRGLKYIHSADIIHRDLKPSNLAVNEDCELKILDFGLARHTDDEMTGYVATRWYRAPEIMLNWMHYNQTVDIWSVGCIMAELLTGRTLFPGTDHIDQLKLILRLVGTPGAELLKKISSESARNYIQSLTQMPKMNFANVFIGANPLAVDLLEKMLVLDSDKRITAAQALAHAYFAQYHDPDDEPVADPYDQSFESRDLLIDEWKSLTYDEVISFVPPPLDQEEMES

CC[C@H](Nc1nc(NCc2ccc(C)nc2)c2ncn(C(C)C)c2n1)[C@@H](C)O
IC50 [1]: 3.25 µM

c1ccc(Nc2ncnc3sc4c(c23)CCCC4)cc1
IC50 [2]: 0.0105 µM

C[C@H](Nc1ncnc2ccc(Cl)nc12)c1nc2c(F)ccc(Cl)c2c(=O)n1N1CCNCC1
IC50 [3]: 0.008 µM | IC50 [4]: 0.003 µM | IC50 [5]: 3.1 µM

C=CC(=O)N1CCC[C@H](C(=O)Nc2ccc3ncnc(Nc4ccc(OCc5ccccn5)c(Cl)c4)c3c2)C1
IC50 [6]: 0.286 µM

COc1cccc(Nc2ncnc3cccc(CN4CCC(N)CC4)c23)c1
IC50 [7]: 0.001 to 5 µM

CC[C@H](Nc1nc(NCc2cnc(C)cc2C)c2ncn(C(C)C)c2n1)[C@@H](C)O
IC50 [1]: 0.09 µM and 0.04 µM

CC[C@H](Nc1nc(NCc2cccc(F)c2)c2ncn(C(C)C)c2n1)[C@@H](C)O
IC50 [1]: 0.12 µM

CC(C)(C)OC(=O)N1CCC(Cc2ccc(NC(=O)c3sc4ncnc5c4c3NC(=O)N5c3ccc4c(ccn4Cc4cccc(F)c4)c3)cc2)CC1
IC50 [8]: 0.168 µM

CCC(Nc1nc(NCc2ccc(C(F)(F)F)nc2)c2ncn(C(C)C)c2n1)C(O)C(F)(F)F (centres undefined)
IC50 [1]: 0.368 µM

C[C@@H](Oc1ccccc1)c1cc(C(=O)N(C)CCO)cn2c(=O)cc(N3CCOCC3)nc12
IC50 [9]: 3.5 µM | IC50 [3]: 0.1 µM

COc1cccc(Nc2ncnc3sc4c(c23)CCCC4)c1
IC50 [2]: 0.034 µM

Cc1nc(N)nc2c1cc(-c1ccc(N)nc1)c(=O)n2[C@@H]1CCOC1
IC50 [10]: < 0.0091 µM | IC50 [11]: 0.034 µM

C[C@H](Nc1ncnc(N)c1C#N)c1cc2ccc(F)cc2nc1-c1ccccc1S(C)(=O)=O
IC50 ([12]; mda-468): > 10 µM

CC[C@H](Nc1nc(NCc2cccc(Cl)c2)c2ncn(C(C)C)c2n1)[C@@H](C)O
IC50 [1]: 0.1 µM

N[C@H](COc1cncc(-c2cc3cn[nH]c3cn2)c1)Cc1c[nH]c2ccccc12
IC50 [13]: 0.006 µM | IC50 [14]: 0.75 µM

Clc1cccc(Nc2ncnc3sc4c(c23)CCCC4)c1
IC50 [2]: 0.00197 µM

CC(C)(C)OC(=O)NCCCNC(=O)c1sc2ncnc3c2c1NC(=O)N3c1ccc2c(ccn2Cc2cccc(F)c2)c1
IC50 [8]: 0.346 µM

N[C@@H]1CCN(Cc2cccc3ncnc(Nc4cccc(Cl)c4)c23)C[C@H]1O
IC50 [7]: 0.001 to 5 µM

O=C(Nc1ccc(CN2CCOCC2)cc1)c1sc2ncnc3c2c1NC(=O)N3c1ccc(F)cc1Cl
IC50 [8]: 0.023 µM

C[C@H](Nc1ncnc(N)c1C#N)c1cc2cccc(F)c2nc1-c1ccccc1S(C)(=O)=O
IC50 ([12]; mda-468): 5.97 µM

O=C(O)c1sc2ncnc3c2c1NC(=O)N3c1ccc(F)c(Cl)c1
IC50 [8]: 1.7 µM

NC1CCN(Cc2cccc3ncnc(Nc4ccc(OCc5cccc(F)c5)c(Cl)c4)c23)CC1
IC50 [7]: 0.001 to 5 µM

C=CC(=O)N1CCCC[C@H]1C(=O)Nc1ccc2ncnc(Nc3ccc(OCc4ccccn4)c(Cl)c3)c2c1
IC50 [6]: 0.105 µM

CC1(C)CNC(=O)c2sc(N3CCOC[C@@H]3Cc3c[nH]c4ncccc34)nc2C1
IC50 [10]: 0.059 µM | IC50 [15]: 0.031 µM | IC50 [16]: 0.018 µM | IC50 [11]: 1.01 µM

N#Cc1ccc(NC(=O)c2sc3ncnc4c3c2NC(=O)N4c2ccc(F)c(Cl)c2)cn1
IC50 [8]: 0.116 µM

CNC(=O)[C@@H]1CN(Cc2cccc3ncnc(Nc4cccc(OC)c4)c23)CC[C@H]1N
IC50 [7]: 0.001 to 5 µM

O=C(Nc1ccc(CN2CCCCC2)cc1)c1sc2ncnc3c2c1NC(=O)N3c1ccc(Cc2ccccc2)cc1
IC50 [8]: 0.11 µM

OCCCCNc1cncc(-c2cncc(Nc3cccc(Cl)c3)n2)c1
IC50 [14]: > 10 µM

C=CC(=O)N1CC(C(=O)Nc2ccc3ncnc(Nc4ccc(OCc5ccccn5)c(Cl)c4)c3c2)C1
IC50 [6]: 1.4 µM

CC[C@H](Nc1ncnc(N)c1-c1nnc(C)o1)c1cc2cccc(Cl)c2c(=O)n1-c1ccccc1
IC50 [3]: 0.359 µM

C=CC(=O)N1CC[C@H](C(=O)Nc2ccc3ncnc(Nc4ccc(OCc5ccccn5)c(Cl)c4)c3c2)C1
IC50 [6]: 0.35 µM

Fc1cc(Nc2nccc(-c3sc(N4CCCC4)nc3-c3cccc(Cl)c3)n2)ccc1OCCN1CCCC1
IC50 [17]: 0.1 to 1 µM

CCN(CC)c1ncc2c(n1)-c1sc(NC(=O)N3CCC[C@@]3(Cc3ccccc3)C(N)=O)nc1CC2
IC50 [10]: 0.045 µM | IC50 [15]: 1.59 µM | IC50 [16]: 0.74 µM | IC50 [11]: 0.127 µM

C[C@@H]1CN(Cc2ccc(NC(=O)c3sc4ncnc5c4c3NC(=O)N5c3ccc(Oc4ccccc4)cc3)cc2)C[C@H](C)O1
IC50 [8]: 0.031 µM

CCNc1nc(-c2cccc(OC)c2)c(-c2ccnc(Nc3ccc(OCCN4CCCC4)c(F)c3)n2)s1
IC50 [17]: < 0.1 µM

N[C@@H]1CCN(Cc2cccc3ncnc(Nc4ccc5c(cnn5Cc5cccc(F)c5)c4)c23)C[C@H]1O
IC50 [7]: 0.001 to 5 µM

C[C@H](Nc1ncnc(N)c1C#N)c1nc2cccc(C#N)c2nc1-c1ccccc1S(C)(=O)=O
IC50 ([12]; mda-468): > 10 µM

N[C@H](COc1cncc(-c2ccc3[nH]ncc3c2)c1)Cc1c[nH]c2ccccc12
IC50 [13]: 0.063 µM | Ki [13]: 0.042 µM | IC50 [14]: 12.2 µM

C[C@H](Nc1ncnc(N)c1C#N)c1nc2cccc(Cl)c2nc1-c1ccccc1S(C)(=O)=O
IC50 ([12]; mda-468): > 10 µM | IC50 ([12]; mda-mb-468): > 10 µM

Cc1cccc(C(=O)c2ccc(Nc3ccc(N)cc3)cc2Cl)c1
IC50 [18]: 0.19 µM

From the Kinase Knowledgebase extract (Sharma et al. 2016)
